Converted amounts (≈) assume the structure as drawn.
Assays:
Assay type in all cases: functional
[1] = test system: Enterococcus faecalis; assay: Antimicrobial activity against Enterococcus faecalis GC 2242 (VRE)
[2] = test system: Escherichia coli; assay: Antimicrobial activity against Escherichia coli GC 4559
[3] = test system: Escherichia coli; assay: Antimicrobial activity against Escherichia coli GC 4560
[4] = test system: Enterococcus faecalis; assay: Antimicrobial activity against Enterococcus faecalis GC 4555 (ATCC)
[5] = Inhibitory activity against MurA from Escherichia coli
[6] = Inhibitory activity against MurB from Escherichia coli
[7] = Inhibitory activity against MurB from Staphylococcus aureus
[8] = Antimicrobial activity against MSCNS (methicillin-susceptible coagulase-negative staphylococci) GC 646; conditions: Staphylococcus
[9] = test system: Staphylococcus aureus; assay: Antimicrobial activity against Staphylococcus aureus GC 1131 (MRSA)
[10] = test system: Staphylococcus aureus; assay: Antimicrobial activity against Staphylococcus aureus GC 2216 (ATCC)
[11] = test system: Staphylococcus aureus; assay: Antimicrobial activity against Staphylococcus aureus GC 4543 (MSSA)
[12] = test system: Streptococcus pneumoniae; assay: Antimicrobial activity against Streptococcus pneumoniae GC1894 (PRSP) in the presence of 4% bovine serum albumin
[13] = test system: Streptococcus pneumoniae; assay: Antimicrobial activity against Streptococcus pneumoniae GC1894 (PRSP)
[14] = test system: Enterococcus faecalis; assay: Antimicrobial activity against Enterococcus faecalis GC 2242 (VRE); Not active; 0.5-128
[15] = test system: Escherichia coli; assay: Antimicrobial activity against Escherichia coli GC 4560; Not active; 0.5-128
[16] = test system: Enterococcus faecalis; assay: Antimicrobial activity against Enterococcus faecalis GC 4555 (ATCC); Not active; 0.5-128
[17] = Inhibitory activity against MurB
[18] = test system: Staphylococcus aureus; assay: Antimicrobial activity against Staphylococcus aureus GC 1131 (MRSA); Not active; 0.5-128
[19] = test system: Staphylococcus aureus; assay: Antimicrobial activity against Staphylococcus aureus GC 2216 (ATCC); Not active; 0.5-128
[20] = test system: Staphylococcus; assay: Antimicrobial activity against MSCNS (methicillin-susceptible coagulase-negative staphylococci) GC 646; Not active; 0.5-128
[21] = test system: Staphylococcus aureus; assay: Antimicrobial activity against Staphylococcus aureus GC 4543 (MSSA); Not active; 0.5-128
[22] = test system: Streptococcus pneumoniae; assay: Antimicrobial activity against Streptococcus pneumoniae GC1894 (PRSP) in the presence of 4% bovine serum albumin; Not active; 0.5-128
[23] = test system: Streptococcus pneumoniae; assay: Antimicrobial activity against Streptococcus pneumoniae GC1894 (PRSP); Not active; 0.5-128
[24] = test system: Escherichia coli; assay: Antimicrobial activity against Escherichia coli GC 4559; Not active

Row | SMILES | MIC [1] [µg/mL] | MIC [2] [µg/mL] | MIC [3] [µg/mL] | MIC [4] [µg/mL] | IC50 [5] [µg/mL] | IC50 [6] [µg/mL] | IC50 [7] [µg/mL] | MIC [8] [µg/mL] | MIC [9] [µg/mL] | MIC [10] [µg/mL] | MIC [11] [µg/mL] | MIC [12] [µg/mL] | MIC [13] [µg/mL] | further results
1 | CC(C)(C)c1nc(NC(=O)Nc2cccnc2)sc1C#N | > 128 | > 128 | > 128 | > 128 | 25 (≈ 83 µM) | 25 (≈ 83 µM) | 25 (≈ 83 µM) | > 128 | > 128 | > 128 | > 128 | > 128 | > 128 | –
2 | Cc1ccc(NC(=O)Nc2nc(C(C)(C)C)c(C#N)s2)cc1C | 0.5 (≈ 1.52 µM) | > 128 | 2 (≈ 6.09 µM) | 0.5 (≈ 1.52 µM) | > 25 | 6.2 (≈ 18.9 µM) | 6.3 (≈ 19.2 µM) | 0.5 (≈ 1.52 µM) | 0.5 (≈ 1.52 µM) | 0.25 (≈ 0.761 µM) | 0.25 (≈ 0.761 µM) | 128 | < 0.12 | –
3 | CC(C)(C)c1nc(NC(=O)Nc2cccc(C#N)c2)sc1C#N | 8 (≈ 24.6 µM) | > 128 | > 128 | 16 (≈ 49.2 µM) | > 25 | > 25 | > 25 | > 128 | > 128 | > 128 | > 128 | > 128 | 8 (≈ 24.6 µM) | –
4 | N#Cc1sc(NC(=O)Nc2ccc(Cl)c(Cl)c2)nc1N1CCOCC1 | 128 (≈ 321 µM) | > 128 | > 128 | > 128 | > 25 | > 25 | 13 (≈ 32.6 µM) | > 128 | > 128 | > 128 | > 128 | > 128 | > 128 | –
5 | N#Cc1cnc(NC(=O)OCc2ccc(Cl)c(Cl)c2)s1 | 64 (≈ 195 µM) | > 128 | > 128 | 64 (≈ 195 µM) | > 25 | > 25 | 24 (≈ 73.1 µM) | > 128 | > 128 | > 128 | > 128 | > 128 | 128 (≈ 390 µM) | –
6 | N#Cc1cnc(NC(=O)Nc2ccc(F)c(F)c2)s1 | 4 (≈ 14.3 µM) | 8 (≈ 28.5 µM) | 4 (≈ 14.3 µM) | 4 (≈ 14.3 µM) | > 25 | 19 (≈ 67.8 µM) | – | 4 (≈ 14.3 µM) | 4 (≈ 14.3 µM) | 4 (≈ 14.3 µM) | 2 (≈ 7.14 µM) | 64 | 0.5 (≈ 1.78 µM) | –
7 | CC(C)COc1nc(NC(=O)Nc2ccc(Cl)c(Cl)c2)sc1C#N | 0.25 (≈ 0.649 µM) | > 128 | > 128 | 0.25 (≈ 0.649 µM) | > 25 | 5.8 (≈ 15.1 µM) | – | 0.25 (≈ 0.649 µM) | 0.5 (≈ 1.3 µM) | 0.5 (≈ 1.3 µM) | 0.25 (≈ 0.649 µM) | 128 | < 0.12 | –
8 | CC(C)(C)c1nc(NC(=O)Nc2ccc(F)c(F)c2)sc1C#N | 0.5 (≈ 1.49 µM) | > 128 | 1 (≈ 2.97 µM) | 1 (≈ 2.97 µM) | > 25 | > 25 | – | 0.5 (≈ 1.49 µM) | < 0.12 | < 0.12 | < 0.12 | 128 | < 0.12 | –
9 | COC(=O)c1sccc1NC(=O)Nc1ccc(Cl)c(Cl)c1 | – | – | – | – | – | – | – | – | – | – | – | – | – | MIC [14]: > 128 µg/mL; MIC [15]: > 128 µg/mL; MIC [16]: > 128 µg/mL; IC50 [17]: 18 µg/mL (≈ 52.1 µM); MIC [18]: > 128 µg/mL; MIC [19]: > 128 µg/mL; MIC [20]: > 128 µg/mL; MIC [21]: > 128 µg/mL; MIC [22]: > 128 µg/mL; MIC [23]: > 128 µg/mL; MIC [24]: > 128 µg/mL
10 | CC(C)(C)c1nc(NC(=O)NCc2ccc(Cl)c(Cl)c2)sc1C#N | 0.5 (≈ 1.3 µM) | > 128 | 2 (≈ 5.22 µM) | 1 (≈ 2.61 µM) | 20.8 (≈ 54.3 µM) | > 25 | 11 (≈ 28.7 µM) | 1 (≈ 2.61 µM) | 1 (≈ 2.61 µM) | 0.25 (≈ 0.652 µM) | 0.5 (≈ 1.3 µM) | 128 | < 0.12 | –
11 | CC(C)(C)c1nc(NC(=O)OCc2ccc(Cl)c(Cl)c2)sc1C#N | 1 (≈ 2.6 µM) | > 128 | > 128 | 2 (≈ 5.2 µM) | 25 (≈ 65.1 µM) | 18 (≈ 46.8 µM) | – | > 128 | 2 (≈ 5.2 µM) | 8 (≈ 20.8 µM) | 1 (≈ 2.6 µM) | > 128 | 0.25 (≈ 0.651 µM) | –
12 | CN[C@H](CC(C)C)C(=O)N[C@H]1C(=O)N[C@@H](CC(N)=O)C(=O)N[C@H]2C(=O)N[C@H]3C(=O)N[C@H](C(=O)N[C@H](C(=O)O)c4cc(O)cc(O)c4-c4cc3ccc4O)[C@H](O)c3ccc(c(Cl)c3)Oc3cc2cc(c3O[C@@H]2O[C@H](CO)[C@@H](O)[C@H](O)[C@H]2O[C@H]2C[C@](C)(N)[C@H](O)[C@H](C)O2)Oc2ccc(cc2Cl)[C@H]1O [VANCOMYCIN] | > 128 | > 128 | 0.25 (≈ 0.173 µM) | 2 (≈ 1.38 µM) | – | – | – | – | – | – | – | – | < 0.12 | –

Further lines, with some results ahead:

Row | MIC [1] [µg/mL] | MIC [2] [µg/mL] | MIC [3] [µg/mL] | MIC [4] [µg/mL] | IC50 [5] [µg/mL] | IC50 [6] [µg/mL] | IC50 [7] [µg/mL] | MIC [8] [µg/mL] | MIC [9] [µg/mL] | MIC [10] [µg/mL] | MIC [11] [µg/mL] | MIC [12] [µg/mL] | MIC [13] [µg/mL] | SMILES | further results
13 | 0.5 (≈ 1.6 µM) | > 128 | 4 (≈ 12.8 µM) | 1 (≈ 3.19 µM) | 12.6 (≈ 40.2 µM) | 4.5 (≈ 14.4 µM) | 5.6 (≈ 17.9 µM) | 1 (≈ 3.19 µM) | 1 (≈ 3.19 µM) | 0.5 (≈ 1.6 µM) | 0.5 (≈ 1.6 µM) | 128 | < 0.12 | N#Cc1cnc(NC(=O)Nc2ccc(Cl)c(Cl)c2)s1 | –
14 | 1 (≈ 3 µM) | > 128 | 2 (≈ 6 µM) | 1 (≈ 3 µM) | 4.6 (≈ 13.8 µM) | 3.8 (≈ 11.4 µM) | 3 (≈ 9 µM) | 0.5 (≈ 1.5 µM) | 1 (≈ 3 µM) | 0.25 (≈ 0.75 µM) | 0.5 (≈ 1.5 µM) | 128 | 0.25 (≈ 0.75 µM) | O=C(Nc1ccc(Cl)c(Cl)c1)Nc1ncc([N+](=O)[O-])s1 | –
15 | 4 (≈ 11.7 µM) | > 128 | > 128 | 32 (≈ 93.2 µM) | 21.6 (≈ 62.9 µM) | 9.8 (≈ 28.6 µM) | – | > 128 | > 128 | > 128 | > 128 | > 128 | > 128 | COc1nc(NC(=O)Nc2ccc(Cl)c(Cl)c2)sc1C#N | –
16 | < 0.12 | > 128 | 0.5 (≈ 1.35 µM) | 0.25 (≈ 0.677 µM) | 3.3 (≈ 8.94 µM) | 6.2 (≈ 16.8 µM) | 2.8 (≈ 7.58 µM) | < 0.12 | < 0.12 | < 0.12 | < 0.12 | 128 | < 0.12 | CC(C)(C)c1nc(NC(=O)Nc2ccc(Cl)c(Cl)c2)sc1C#N | –
17 | 0.25 (≈ 0.719 µM) | > 128 | 0.5 (≈ 1.44 µM) | 0.5 (≈ 1.44 µM) | > 25 | > 25 | > 25 | 0.5 (≈ 1.44 µM) | 0.5 (≈ 1.44 µM) | 0.25 (≈ 0.719 µM) | 0.25 (≈ 0.719 µM) | > 128 | < 0.12 | N#Cc1sc(NC(=O)Nc2ccc(Cl)c(Cl)c2)nc1Cl | –
18 | 2 (≈ 6.39 µM) | > 128 | 8 (≈ 25.5 µM) | 8 (≈ 25.5 µM) | > 25 | > 25 | 14 (≈ 44.7 µM) | 4 (≈ 12.8 µM) | 8 (≈ 25.5 µM) | 4 (≈ 12.8 µM) | 4 (≈ 12.8 µM) | 128 | < 0.12 | N#Cc1csc(NC(=O)Nc2ccc(Cl)c(Cl)c2)n1 | –
19 | 0.5 (≈ 1.4 µM) | > 128 | 0.5 (≈ 1.4 µM) | > 128 | > 25 | 23 (≈ 64.4 µM) | – | 0.5 (≈ 1.4 µM) | 1 (≈ 2.8 µM) | 0.5 (≈ 1.4 µM) | 0.5 (≈ 1.4 µM) | 128 | < 0.12 | CCOc1nc(NC(=O)Nc2ccc(Cl)c(Cl)c2)sc1C#N | –
20 | 4 (≈ 13.9 µM) | > 128 | 0.5 (≈ 1.74 µM) | 4 (≈ 13.9 µM) | 20 (≈ 69.4 µM) | > 25 | > 25 | 2 (≈ 6.94 µM) | 2 (≈ 6.94 µM) | 2 (≈ 6.94 µM) | 2 (≈ 6.94 µM) | > 128 | 0.5 (≈ 1.74 µM) | O=C(Nc1ccc(Cl)c(Cl)c1)Nc1nccs1 | –
21 | 64 (≈ 196 µM) | > 128 | > 128 | > 128 | > 25 | > 25 | 24 (≈ 73.4 µM) | > 128 | > 128 | > 128 | > 128 | 128 | 64 (≈ 196 µM) | N#Cc1cnc(NC(=O)NCc2ccc(Cl)c(Cl)c2)s1 | –
